Assay results as given in patent EP2853293B1, “Thioninium compounds and their use” (WisTa Laboratories Ltd., priority 2006, dated 2007).
Where a name gives a salt, the structure may show the parent alone. Read-outs that look alike come from different tables or passages of the source.

Key:
[1] = test system: fibroblast cells (3T6); conditions: cell numbers after 24 hrs exposure, lactate dehydrogenase assay after lysis of remaining cells
Procedure: Toxicity of the compounds described herein was assessed in the cell based assay used to assess EC50. Toxicity was measured by cell numbers after 24 hrs exposure to the compound using a lactate dehydrogenase assay kit TOX-7(Sigma Biosciences) according to the manufacturer's instructions after lysis of remaining cells. Alternatively a kit from Promega UK (CytoTox 96) was used, again according to the manufacturer's instructions.

[2] = molecular target: T1, full-length tau ("T40") in fibroblast cells (3T6) (Homo sapiens, UniProt P10636); test: Cell-based assay for establishing EC50 (inhibition of generation of the 12 kD PHF-core tau fragment); conditions: concentration at which there is a 50% inhibition of generation of the 12 kD fragment; 3T6 cells
T1 construct: fibroblast cells (3T6) express full-length tau ("T40") under control of an inducible promotor; low constitutive levels of the PHF-core tau fragment (12 kD fragment); expressed in transfected cells; host or cells: 3T6 fibroblast cells
T1 sequence (P10636 2-441 isoform P10636-8 limits assumed): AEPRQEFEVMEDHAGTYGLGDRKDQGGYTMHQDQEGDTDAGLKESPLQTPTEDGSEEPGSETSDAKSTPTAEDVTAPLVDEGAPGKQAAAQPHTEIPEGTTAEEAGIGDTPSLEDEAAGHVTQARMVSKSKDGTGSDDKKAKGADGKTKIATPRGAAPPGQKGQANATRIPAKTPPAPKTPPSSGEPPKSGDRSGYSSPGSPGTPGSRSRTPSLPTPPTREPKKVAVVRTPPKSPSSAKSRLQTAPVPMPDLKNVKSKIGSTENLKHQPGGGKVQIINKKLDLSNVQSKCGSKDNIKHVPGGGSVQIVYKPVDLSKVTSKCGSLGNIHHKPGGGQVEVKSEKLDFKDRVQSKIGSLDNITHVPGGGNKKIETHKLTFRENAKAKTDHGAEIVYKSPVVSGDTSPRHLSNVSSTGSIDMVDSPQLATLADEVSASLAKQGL
Excerpt: In essence, fibroblast cells (3T6) express full-length tau ("T40") under control of an inducible promotor, and low constitutive levels of the PHF-core tau fragment (12 kD fragment).
This is referred to as the EC50 value.

[3] = molecular target: T2, tau-tau binding (truncated tau residues 297-390; dGA, and full-length tau (T40)) (Homo sapiens, UniProt P10636); conditions: read-out: B50; concentration of compound required to inhibit the tau-tau binding by 50%
T2 sequence (P10636 614-707): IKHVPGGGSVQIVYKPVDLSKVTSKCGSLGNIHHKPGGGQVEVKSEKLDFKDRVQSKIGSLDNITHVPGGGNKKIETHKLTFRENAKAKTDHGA
T2 sequence (P10636 1-441 isoform P10636-8): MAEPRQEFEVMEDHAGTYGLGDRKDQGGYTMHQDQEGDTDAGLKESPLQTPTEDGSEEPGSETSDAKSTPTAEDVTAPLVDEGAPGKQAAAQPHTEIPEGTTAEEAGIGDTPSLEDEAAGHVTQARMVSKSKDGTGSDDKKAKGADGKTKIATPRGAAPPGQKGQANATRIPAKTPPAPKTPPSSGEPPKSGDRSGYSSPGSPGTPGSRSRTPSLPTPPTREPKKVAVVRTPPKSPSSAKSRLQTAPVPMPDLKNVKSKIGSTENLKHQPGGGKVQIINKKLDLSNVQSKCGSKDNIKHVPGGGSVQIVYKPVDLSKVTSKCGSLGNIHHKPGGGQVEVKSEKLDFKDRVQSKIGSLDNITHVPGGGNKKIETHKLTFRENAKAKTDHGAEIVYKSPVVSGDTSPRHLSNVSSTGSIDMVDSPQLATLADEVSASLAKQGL
Excerpt: (§1) Briefly, a fragment of tau corresponding to the core repeat domain, which has been adsorbed to a solid phase substrate, is able to capture soluble full-length tau and bind tau with high affinity.
(§2) The aqueous phase binding buffer contained 0.05% Tween-20 and 1% gelatine in phosphate-buffered saline (pH7.4).

[4] = molecular target: T2, tau-tau binding (truncated tau residues 297-390; dGA, and full-length tau (T40)); test: biochemical
Excerpt: as §1, §2

| Compound | LD50 [1] | EC50 [2] [nM] | IC50 [3] [nM] | IC50 [4] [nM] |
| --- | --- | --- | --- | --- |
| CCc1cc(N(CC)CC)cc2[s+]c3cc(N(CC)CC)cc(CC)c3nc12 [DEETC, 1,9-diethyl-ethyl-thioninium chloride] | 1.6 ± 0.4 (13) µM | 0.6 ± 0.3 | 3700 ± 500 |  |
| CCc1cc(N(C)C)cc2[s+]c3cc(N(C)C)cc(CC)c3nc12 [DEMTC, 1,9-diethyl-methyl-thioninium chloride] | 3.3 ± 0.6 (22) µM | 1.6 ± 0.6 |  |  |
| CCN(CC)c1cc(C)c2nc3c(C)cc(N(CC)CC)cc3[s+]c2c1 [DMETC, 1,9-dimethyl-ethyl-thioninium chloride] | 4.2 ± 2.2 (4) µM | 4 ± 1 | 4500 ± 300 |  |
| Cc1cc(N(C)C)cc2[s+]c3cc(N(C)C)cc(C)c3nc12 [DMMTC, 1,9-dimethyl-methyl-thioninium chloride, reference compound] | 2.7 ± 1.2 (6) µM | 40 ± 4 |  |  |
| CCN(CC)c1ccc2nc3ccc(=[N+](CC)CC)cc-3sc2c1 [ETI, ethyl-thioninium iodide] |  | 60 | > 500000 |  |
| CCN(CC)c1ccc2nc3ccc(=[N+](CC)CC)cc-3sc2c1 [ETI.HI, ethyl-thioninium iodide hydrogen iodide mixed salt] |  |  |  | 83000 |
| ethyl-thioninium chloride [ETC] | 32.0 ± 4.0 (26) µM | 70 ± 7 | 49000 ± 8500 |  |
